Measurements taken from patent US7030145B2, “Pyridinyl derivatives for the treatment of depression” (Bristol-Myers Squibb Company, priority 2003, dated 2006).

Biological target: T1, cloned human CRF-R1 receptors (Homo sapiens, UniProt P34998)
T1 construct: the coding region was amplifies by PCR from start to stop codons; expressed in transfected cells; membranes
T1 sequence (P34998 24-415): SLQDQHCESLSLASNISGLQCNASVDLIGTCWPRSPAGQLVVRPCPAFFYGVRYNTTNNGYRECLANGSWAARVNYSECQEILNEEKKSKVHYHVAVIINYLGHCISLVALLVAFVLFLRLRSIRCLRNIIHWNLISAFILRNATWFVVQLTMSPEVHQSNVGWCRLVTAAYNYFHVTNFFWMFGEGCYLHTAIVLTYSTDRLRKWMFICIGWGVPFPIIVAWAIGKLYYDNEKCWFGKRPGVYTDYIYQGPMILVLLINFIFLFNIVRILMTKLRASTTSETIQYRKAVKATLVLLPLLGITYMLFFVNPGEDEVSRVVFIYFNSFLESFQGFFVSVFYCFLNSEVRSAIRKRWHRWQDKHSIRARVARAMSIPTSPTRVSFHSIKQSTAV
Test: CRF-R1 receptor binding assay (inhibition of 125I-ovine-CRF binding to cell membranes)
Details: membranes of 293EBNA cells transfected with hCRFR1, class d = reported as percent inhibition at 10 μM, figures not given, read-out: activity (Ki class in the CRF assays)
Source text: The following is a description of the isolation of cell membranes containing cloned human CRF-R1 receptors for use in a standard binding assay as well as a description of the assay itself.
Messenger RNA was isolated from human hippocampus. […]. The mRNA was reverse transcribed using oligo (dt) 12–18 and the coding region was amplifies by PCR from start to stop codons. The resulting PCR fragment was cloned into the EcoRV site of pGEMV, from whence the insert was reclaimed using XhoI+XbaI and cloned into the XhoI+XbaI sites of vector pm3 as (which contains a CMV promoter, the SV′t′ splice and early poly A signals, an Eptein-Barr viral origin of replication, and a hygromycin selectable marker). The resulting expression vector, called phchCRFR was transfected in 293EBNA cells and cells retaining the episome were selected in the presence of […] hygromycin. Cells surviving 4 weeks of selection in hygromycin were pooled, adapted to growth in suspension and used to generate membranes for the binding assay described below. Individual aliquots containing approximately 1×10^8 of the suspended cells were then centrifuged to form a pellet and frozen. For the binding assay a frozen pellet described above containing 293EBNA cells transfected with hCRFR1 receptors is homogenized in 10 mL of ice cold tissue buffer (50 mM HEPES buffer pH 7.0, containing 10 MM MgCl2, 2 mM EGTA, 1 μg/mL apotinin, 1 μg/mL leupeptin and 1 μg/mL pepstatin). The homoginate is centrifuged at 40,000×g for 12 min and the resulting pellet rehomogenized in 10 mL of tissue buffer. After another centrifugation at 40,000×g for 12 min, the pellet is resuspended to a protein concentration of 360 μg/mL to be used in the assay.
Binding assays are performed in 96 well plates; each well having a 300 μL capacity. To each well is added 50 μL of test drug dilutions (final concentration of drugs range from 10^−10–10^−5 M), 100 μL of ^125I-ovine-CRF (^125I-o-CRF) (final concentration 150 pM) and 150 μL of the cell homoginate described above. Plates are then allowed to incubate at room temperature for 2 hours before filtering the incubate over GF/F filters (presoaked with 0.3% polyethyleneimine) using an appropriate cell harvester. Filters are rinsed 2 times with ice cold assay buffer before removing individual filters and assessing them for radioactivity on a gamma counter.
Curves of the inhibition of ^125I-o-CRF binding to cell membranes at various dilutions of test drug are analyzed by the iterative curve fitting program LIGAND [P. J. Munson and D. Rodbard, Anal. Biochem., 107:220 (1980), which provides Ki values for inhibition which are then used to assess biological activity. […]
Messenger RNA was isolated from human hippocampus. The mRNA was isolated from human hippocampus. The mRNA was reverse transcribed using oligo (dt) 12–18 and the coding region was amplifies by PCR from start to stop codons. The resulting PCR fragment was cloned into the EcoRV site of pGEMV, from whence the insert was reclaimed using XhoI+XbaI and cloned into the XhoI+XbaI sites of vector pm3 as (which contains a CMV promoter, the SV′t′ splice and early poly A signals, an Eptein-Barr viral origin of replication, and a hygromycin selectable marker). The resulting expression vector, called phchCRFR was transfected in 293EBNA cells and cells retaining the episome were selected in the presence of […] hygromycin. Cells surviving 4 weeks of selection in hygromycin were pooled, adapted to growth in suspension and used to generate membranes for the binding assay described below. […]
A frozen pellet described above containing 293EBNA cells transfected with hCRFR1 receptors or the rat frontal cortex tissue dissected from frozen rat brains was prepared as the source of membranes expressing CRF1 receptors used in binding assays. […]

| Ki [nM] | Compound |
| --- | --- |
| 100 to 500 | Cc1cc(C)c(Nc2nc(C)ccc2S(=O)(=O)c2ccc(C(O)c3ccccc3)cc2)c(C)c1 (centres unmarked) [Example 53, {4-[6-Methyl-2-(2,4,6-trimethylphenylamino)-pyridine-3-sulfonyl]-phenyl}-phenyl-methanol] |
| ≤ 100 | CCc1ccc(S(=O)(=O)c2ccc(C)nc2Nc2cc(C)c(C)cc2C)cc1 [Example 70, [3-(4-Ethylbenzenesulfonyl)-6-methylpyridin-2-yl]-(2,4,5-trimethylphenyl)-amine] |
| 100 to 500 | C=CCOc1ccc(S(=O)(=O)c2ccc(C)nc2Nc2c(C)cc(C)cc2C)cc1 [Example 13, [3-(4-Allyloxybenzenesulfonyl)-6-methylpyridin-2-yl]-(2,4,6-trimethylphenyl)-amine] |
| 100 to 500 | Cc1cc(C)c(Nc2nc(C)ccc2S(=O)(=O)c2cccc(OCc3ccc(Cl)nc3)c2)c(C)c1 [Example 64, {3-[3-(6-Chloropyridin-3-ylmethoxy)-benzenesulfonyl]-6-methylpyridin-2-yl}-(2,4,6-trimethylphenyl)-amine] |
| 500 to 5000 | Cc1cc(C)c(NCc2ccc(S(=O)(=O)c3ccc(C)nc3Nc3c(C)cc(C)cc3C)cc2)c(C)c1 [Example 51, (6-Methyl-3-{4-[(2,4,6-trimethylphenylamino)-methyl]-benzenesulfonyl}-pyridin-2-yl)-(2,4,6-trimethylphenyl)-amine] |
| 100 to 500 | Cc1cc(C)c(Nc2nc(C)ccc2S(=O)(=O)c2ccc(C(C)C)cc2)c(C)c1 [Example 43, [3-(4-Isopropylbenzenesulfonyl)-6-methylpyridin-2-yl]-(2,4,6-trimethylphenyl)-amine] |
| 100 to 500 | Cc1cc(C)c(Nc2nc(C)ccc2S(=O)(=O)c2cccc(OCc3cc(Cl)nc(Cl)c3)c2)c(C)c1 [Example 65, {3-[3-(2,6-Dichloropyridin-4-ylmethoxy)-benzenesulfonyl]-6-methylpyridin-2-yl}-(2,4,6-trimethylphenyl)-amine] |
| 100 to 500 | Cc1cc(C)c(Nc2nc(C)ccc2S(=O)(=O)c2ccc(C)c(C)c2)c(C)c1 [Example 38, [3-(3,4-Dimethylbenzenesulfonyl)-6-methylpyridin-2-yl]-(2,4,6-trimethylphenyl)-amine] |
| 100 to 500 | Cc1cc(C)c(Nc2nc(C)ccc2S(=O)(=O)c2ccc(Cl)c(Cl)c2)c(C)c1 [Example 40, [3-(3,4-Dichlorobenzenesulfonyl)-6-methylpyridin-2-yl]-(2,4,6-trimethylphenyl)-amine] |
| 100 to 500 | Cc1cc(C)c(Nc2nc(C)ccc2S(=O)(=O)c2ccc(CO)cc2)c(C)c1 [Example 50, {4-[6-Methyl-2-(2,4,6-trimethylphenylamino)-pyridine-3-sulfonyl]-phenyl}-methanol] |
| 500 to 5000 | COc1ccc(S(=O)(=O)c2ccc(C)nc2Nc2c(C)cc(C)cc2C)cc1OC [Example 39, [3-(3,4-Dimethoxybenzenesulfonyl)-6-methylpyridin-2-yl]-(2,4,6-trimethylphenyl)-amine] |
| ≤ 100 | CCc1ccc(S(=O)(=O)c2ccc(C)nc2Nc2ccc(OC)cc2C)cc1 [Example 67, [3-(4-Ethylbenzenesulfonyl)-6-methylpyridin-2-yl]-(4-methoxy-2-methylphenyl)-amine] |
| 100 to 500 | C=CCOc1cccc(S(=O)(=O)c2ccc(C)nc2Nc2c(C)cc(C)cc2C)c1 [Example 59, [3-(3-Allyloxybenzenesulfonyl)-6-methylpyridin-2-yl]-(2,4,6-trimethylphenyl)-amine] |
| 100 to 500 | Cc1cc(C)c(Nc2nc(C)ccc2S(=O)(=O)c2cccc(OCc3ccccc3)c2)c(C)c1 [Example 60, [3-(3-Benzyloxybenzenesulfonyl)-6-methylpyridin-2-yl]-(2,4,6-trimethylphenyl)-amine] |
| 100 to 500 | Cc1cc(C)c(Nc2nc(C)ccc2S(=O)(=O)c2ccc(F)cc2)c(C)c1 [Example 45, [3-(4-Fluorobenzenesulfonyl)-6-methylpyridin-2-yl]-(2,4,6-trimethylphenyl)-amine] |
| 100 to 500 | CCc1ccc(S(=O)(=O)c2ccc(C)nc2Nc2ccc(C)cc2C)cc1 [Example 66, (2,4-Dimethylphenyl)-[3-(4-ethylbenzenesulfonyl)-6-methylpyridin-2-yl]-amine] |
| ≤ 100 | Cc1cc(C)c(Nc2nc(C)ccc2S(=O)(=O)c2ccc(-c3ccccc3)cc2)c(C)c1 [Example 48, [3-(Biphenyl-4-sulfonyl)-6-methylpyridin-2-yl]-(2,4,6-trimethylphenyl)-amine] |
| ≤ 100 | CCc1ccc(S(=O)(=O)c2ccc(C)nc2Nc2c(C)cc(C)cc2C)cc1 [Example 42, [3-(4-Ethylbenzenesulfonyl)-6-methylpyridin-2-yl]-(2,4,6-trimethylphenyl)-amine] |
| 500 to 5000 | Cc1cc(C)c(Nc2nc(C)ccc2S(=O)(=O)c2ccc(C=O)cc2)c(C)c1 [Example 52, 4-[6-Methyl-2-(2,4,6-trimethylphenylamino)-pyridine-3-sulfonyl]-benzaldehyde] |
| 100 to 500 | Cc1cc(C)c(Nc2nc(C)ccc2S(=O)(=O)c2ccc(OC(F)(F)F)cc2)c(C)c1 [Example 44, [6-Methyl-3-(4-trifluoromethoxybenzenesulfonyl)-pyridin-2-yl]-(2,4,6-trimethylphenyl)-amine] |
| 100 to 500 | Cc1cc(C)c(Nc2nc(C)ccc2S(=O)(=O)c2cccc(OCc3ccc(F)cc3)c2)c(C)c1 [Example 61, {3-[3-(4-Fluorobenzyloxy)-benzenesulfonyl]-6-methylpyridin-2-yl}-(2,4,6-trimethylphenyl)-amine] |
| ≤ 100 | COc1ccccc1-c1ccc(S(=O)(=O)c2ccc(C)nc2Nc2c(C)cc(C)cc2C)cc1 [Example 49, [3-(2′-Methoxybiphenyl-4-sulfonyl)-6-methylpyridin-2-yl]-(2,4,6-trimethylphenyl)-amine] |
| 100 to 500 | Cc1ccc(S(=O)(=O)c2ccc(C)nc2Nc2c(C)cc(C)cc2C)cc1 [Example 41, [6-Methyl-3-(toluene-4-sulfonyl)-pyridin-2-yl]-(2,4,6-trimethylphenyl)-amine] |
| 100 to 500 | COc1cccc(COc2cccc(S(=O)(=O)c3ccc(C)nc3Nc3c(C)cc(C)cc3C)c2)c1 [Example 62, {3-[3-(3-Methoxybenzyloxy)-benzenesulfonyl]-6-methylpyridin-2-yl}-(2,4,6-trimethylphenyl)-amine] |
| ≤ 100 | C#Cc1ccc(S(=O)(=O)c2ccc(C)nc2Nc2c(C)cc(C)cc2C)cc1 [Example 47, [3-(4-Ethynylbenzenesulfonyl)-6-methylpyridin-2-yl]-(2,4,6-trimethylphenyl)-amine] |
| 100 to 500 | CCc1ccc(S(=O)(=O)c2ccc(C)nc2Nc2ccc(OC)cc2OC)cc1 [Example 68, (2,4-Dimethoxyphenyl)-[3-(4-ethylbenzenesulfonyl)-6-methylpyridin-2-yl]-amine] |
